This is an account of results in patent US6716822B2, “Therapeutic agent for ischemia which inhibits apoptosis under ischemic condition” (priority 2000, dated 2004).

The nature of data set [1]: Acute toxicity test, subcutaneous injection. As to conditions: mouse, in vivo, sc, male C57BL/6 mice, dead mice counted through 1-7 days. An excerpt:
All antibiotics used in the present invention, except for an aminoglycoside antibiotic of geneticin, were not subject to acute toxicity tests since they have been clinically approved for their safety. In case of geneticin, after subcutaneously injecting geneticin into male C57BL/6 mice, dead mice were counted through 1-7 days.

In data set [2] the test system is Sprague-Dawley rats. Kind of data set: Effect of antibiotics on ischemic cells: rat left anterior descending artery ligature, infarct/ischemic area by Evans blue/TTC staining. As to conditions: 45 mg/kg peritoneally, LAD ligature 2 hours. It is filed as in vivo.

Turning to `CN[C@@H]1[C@@H](O)[C@@H](O[C@@H]2[C@@H](O)[C@H](O[C@H]3O[C@H]([C@@H](C)O)[C@@H](O)[C@H](O)[C@H]3N)[C@@H](N)C[C@H]2N)OC[C@]1(C)O` [geneticin], the LD50 (in general, the dose at which mortality reaches 50%) in data set [1] is ~3800 mg/kg. In data set [2], the “AR/LV (percentage of ischemic area per cross-sectional area of heart)” value is reported as 40.0 ± 4.1%; the “IS/(IS + AR) (percentage of infarct area per sum of infarct and ischemic area)” value is 24.6 ± 2.1%; the “IS/LV (percentage of infarct area per cross-sectional area of heart)” value was 12.5 ± 1.8%.

On to `C[C@H]1c2cccc(O)c2C(=O)C2=C(O)[C@]3(O)C(=O)C(C(N)=O)=C(O)[C@@H](N(C)C)[C@@H]3[C@@H](O)[C@@H]21` [doxycycline], for which, in data set [2], the “AR/LV (percentage of ischemic area per cross-sectional area of heart)” value was 41.8 ± 4.3%; the “IS/(IS + AR) (percentage of infarct area per sum of infarct and ischemic area)” value amounted to 29.3 ± 4.2%; the “IS/LV (percentage of infarct area per cross-sectional area of heart)” value is 16.9 ± 2.5%.
